Laboratory results as given in patent US11207312B2, “Metallo-beta-lactamase inhibitors and methods of use thereof” (priority 2017, dated 2021).

Assays:
NDM-1 = NDM-1 (Klebsiella pneumoniae, UniProt C7C422); experiment: biochemical; format: biochemical; settings: CCF2-FA fluorescence assay, 2 hours at 25° C.
Method in brief: (§1)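 Metallo-β-lactamase activity read by fluorescence against CCF2-FA (1.25 μM final) in 100 mM KH2PO4 pH 7 with 0.005% Tween-20 and 10 μM ZnSO4; enzyme final at 1 pM NDM-1, 2 pM IMP-1 or 30 pM VIM-1. Inhibitor at 20 to 0.00063 μM, 2 h at 25° C; IC50 by 4-parameter fit.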

IMP-1 = IMP-1 (Serratia marcescens, UniProt P52699); experiment: biochemical; settings: CCF2-FA fluorescence assay, 2 hours at 25° C.; read-out: IMP1 IC50
Method in brief: as §1

VIM-1 = VIM-1 (Pseudomonas aeruginosa (strain ATCC 15692 / DSM 22644 / CIP 104116 / JCM 14847 / LMG 12228 / 1C / PRS 101 / PAO1), UniProt A0A0F7KYQ8); experiment: biochemical; settings: CCF2-FA fluorescence assay, 2 hours at 25° C.; read-out: VIM1 IC50
Method in brief: as §1

VIM-2 = VIM-2 (Escherichia coli, UniProt Q5U7L7); experiment: biochemical; settings: CCF2-FA fluorescence assay; read-out: VIM2 IC50
[1] = tested on: Escherichia coli expressing NDM-1 (CLB30016); format: cell-based; settings: with imipenem 1 μg/ml; 95% inhibition of bacterial growth
Method in brief: (§2)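 Read-out is absorbance after 22–24 h at 35 °C, with MITC95 taken as the lowest inhibitor concentration that, alongside imipenem at 1 μg/ml, suppresses 95% of bacterial growth. Inocula came from saline-suspended colonies diluted 1:100 into 1.1× CAMHB.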

[2] = tested on: Klebsiella pneumoniae expressing VIM-1 (IHMA599644); format: cell-based; settings: with imipenem 1 μg/ml; 95% inhibition of bacterial growth
Method in brief: as §2

[3] = tested on: Serratia marcescens expressing IMP-1 (CL5741); format: cell-based; settings: with imipenem 1 μg/ml; 95% inhibition of bacterial growth
Method in brief: as §2

[4] = tested on: P. aeruginosa MB9798 (efflux+, IMP-1 plasmid); settings: for MB9798 MITC95 P. aeruginosa uM Efflux WT: efflux + (MB9798) strain, imipenem at 2 μg/mL, in the presence of a class A, C, D serine β-lactamase inhibitor closely related to relebactam; for Efflux ratio: fold difference between efflux+ (MB9798) and efflux− (MB9799) strains
Method in brief: (§3)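 Isogenic P. aeruginosa PAO1 strains (efflux+ and multiple-efflux-pump-disrupted) carrying plasmid IMP-1, with inducible AmpC, tested by broth microdilution. Imipenem and/or ceftazidime fixed, usually at CLSI breakpoint, plus fixed class A/C β-lactamase inhibitor; titrated MBL inhibitor concentration restoring susceptibility recorded and compared between strains as efflux fold difference.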

[5] = tested on: P. aeruginosa MB9799 (efflux-, IMP-1 plasmid); format: cell-based, Pseudomonas aeruginosa; settings: efflux − (MB9799) strain; imipenem at 2 μg/mL; in the presence of a class A, C, D serine β-lactamase inhibitor closely related to relebactam
Method in brief: as §3

Sequence of IMP-1 (P52699 whole entry, looked up, species assumed): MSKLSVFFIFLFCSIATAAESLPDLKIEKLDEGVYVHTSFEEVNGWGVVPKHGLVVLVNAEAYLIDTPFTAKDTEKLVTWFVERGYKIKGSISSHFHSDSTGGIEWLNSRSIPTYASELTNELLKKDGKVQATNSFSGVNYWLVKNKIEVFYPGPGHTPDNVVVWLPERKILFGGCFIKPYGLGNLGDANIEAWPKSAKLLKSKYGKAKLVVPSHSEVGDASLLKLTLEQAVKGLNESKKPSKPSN
Sequence of NDM-1 (C7C422 whole entry, looked up, species assumed): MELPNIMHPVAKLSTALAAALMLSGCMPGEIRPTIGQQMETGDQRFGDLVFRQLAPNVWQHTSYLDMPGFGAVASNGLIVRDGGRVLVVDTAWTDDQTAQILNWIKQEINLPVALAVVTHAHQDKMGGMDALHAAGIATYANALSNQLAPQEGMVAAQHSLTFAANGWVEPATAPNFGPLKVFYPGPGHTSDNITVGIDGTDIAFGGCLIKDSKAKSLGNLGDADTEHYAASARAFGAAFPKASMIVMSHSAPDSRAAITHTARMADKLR

| SMILES | IC50 (NDM-1) [nM] | IC50 (IMP-1) [nM] | IC50 (VIM-1) [nM] | IC50 (VIM-2) [nM] | CLB30016 E. coli MITC95 NDM [1] [µM] | IHMA599644 K. pneumoniae MITC95 VIM [2] [µM] | CL5741 S. marcescens MITC95 IMP [3] [µM] | MB9798 MITC95 P. aeruginosa uM Efflux WT [4] [µM] | Efflux ratio [4] | MB9799 MITC95 P. aeruginosa uM Efflux Mutant [5] [µM] |
| --- | --- | --- | --- | --- | --- | --- | --- | --- | --- | --- |
| NC[C@@H](O)CNS(=O)(=O)c1ccc(NC2CCC(N)C2)c(-c2nn[nH]n2)c1S(N)(=O)=O (stereo partly drawn) [compound 184, N1-((R)-3-amino-2-hydroxypropyl)-4-((3-aminocyclopentyl)amino)-3-(2H-tetrazol-5-yl)benzene-1,2-disulfonamide] | 19.4 | 39.4 | 4.61 | 44.4 | 0.78 | 1.56 | 1.56 | 6.25 | 2.00 | 3.13 |
| NS(=O)(=O)c1c(S(=O)(=O)N[C@@H]2CCNC2)ccc(N2CCC(CCO)CC2)c1-c1nnn[nH]1 [Example 98, 4-[4-(2-hydroxyethyl)piperidin-1-yl]-N1-[(3R)-pyrrolidin-3-yl]-3-(1H-tetrazol-5-yl)benzene-1,2-disulfonamide] | 0.08 | 0.13 | 0.15 | 0.59 | 12.50 | 12.50 | 6.25 | 3.13 | 1.00 | 3.13 |
| NS(=O)(=O)c1c(S(=O)(=O)N[C@@H]2CCNC2)ccc(N2CCCCC(O)C2)c1-c1nnn[nH]1 (stereo partly drawn) [Example 104, 4-(3-hydroxyazepan-1-yl)-N1-[(3R)-pyrrolidin-3-yl]-3-(1H-tetrazol-5-yl)benzene-1,2-disulfonamide] | 0.68 | 2.06 | 0.21 | 0.65 | 3.13 | 3.13 | 3.13 | 3.13 | 2.00 | 1.56 |
| NS(=O)(=O)c1c(S(=O)(=O)C2CNC2)ccc(N2CCCC(CO)C2)c1-c1nnn[nH]1 (stereo not drawn) [Example 57, 6-(azetidin-3-ylsulfonyl)-3-[3-(hydroxymethyl)piperidin-1-yl]-2-(1H-tetrazol-5-yl)benzenesulfonamide] | 2.48 | 4.38 | 1.44 | 1.87 | 3.13 | 12.50 | 3.13 | 25.00 | 15.99 | 1.56 |
| NCCNS(=O)(=O)C1CCN(c2ccc(S(=O)(=O)N[C@@H](CN)CO)c(S(N)(=O)=O)c2-c2nn[nH]n2)CC1 [Example 202, (S)-N1-(1-amino-3-hydroxypropan-2-yl)-4-(4-(N-(2-aminoethyl)sulfamoyl)piperidin-1-yl)-3-(2H-tetrazol-5-yl)benzene-1,2-disulfonamide] | 0.44 | 0.58 | 0.09 | 1.6 | 0.78 | 1.56 | 1.56 | 1.56 | 1.00 | 1.56 |
| CC(=O)N[C@H]1CCN(c2ccc(S(=O)(=O)N[C@@H]3CCNC3)c(S(N)(=O)=O)c2-c2nnn[nH]2)C1 [Example 83, N-[(3S)-1-{4-[(3R)-pyrrolidin-3-ylsulfamoyl]-3-sulfamoyl-2-(1H-tetrazol-5-yl)phenyl}pyrrolidin-3-yl]acetamide] | 4.98 | 15.9 | 2.11 | 2.82 | 6.25 | 12.50 | 3.13 | 12.50 | 4.00 | 3.13 |
